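Five concentrations, 48 hours, 96-well plates. GI50 is the concentration that inhibits growth by half. TGI marks complete inhibition of growth.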
Columns and labels:
Test in all cases: NCI anticancer screen, dose series, 48 h; in the data active means GI50 below about 0.43 µM; inactive means the rest
786-0 renal = system: 786-0 renal
A498 renal = system: A498 renal
A549 NSCLC = system: A549 NSCLC
ACHN renal = system: ACHN renal
CAKI-1 renal = system: CAKI-1 renal
CCRF-CEM leukemia = system: CCRF-CEM leukemia
COLO 205 colon = system: COLO 205 colon
DU-145 prostate = system: DU-145 prostate
EKVX NSCLC = system: EKVX NSCLC
HCC-2998 colon = system: HCC-2998 colon
HCT-116 colon = system: HCT-116 colon
HCT-15 colon = system: HCT-15 colon
HL-60(TB) leukemia = system: HL-60(TB) leukemia
HOP-62 NSCLC = system: HOP-62 NSCLC
HOP-92 NSCLC = system: HOP-92 NSCLC
HS 578T breast = system: HS 578T breast
HT29 colon = system: HT29 colon
IGROV1 ovarian = system: IGROV1 ovarian
K-562 leukemia = system: K-562 leukemia
KM12 colon = system: KM12 colon
LOX IMVI melanoma = system: LOX IMVI melanoma
M14 melanoma = system: M14 melanoma
MALME-3M melanoma = system: MALME-3M melanoma
MCF7 breast = system: MCF7 breast
MDA-MB-231 breast = system: MDA-MB-231 breast
MDA-MB-435 = system: MDA-MB-435
MDA-N = system: MDA-N
MOLT-4 leukemia = system: MOLT-4 leukemia
NCI-H226 lung = system: NCI-H226 lung
NCI-H23 lung = system: NCI-H23 lung
NCI-H460 lung = system: NCI-H460 lung
NCI/ADR-RES ovarian = system: NCI/ADR-RES ovarian
OVCAR-3 ovarian = system: OVCAR-3 ovarian
OVCAR-4 ovarian = system: OVCAR-4 ovarian
OVCAR-5 ovarian = system: OVCAR-5 ovarian
OVCAR-8 ovarian = system: OVCAR-8 ovarian
PC-3 prostate = system: PC-3 prostate
RPMI-8226 leukemia = system: RPMI-8226 leukemia
RXF 393 renal = system: RXF 393 renal
SF-268 CNS = system: SF-268 CNS
SF-295 CNS = system: SF-295 CNS
SF-539 CNS = system: SF-539 CNS
SK-MEL-28 melanoma = system: SK-MEL-28 melanoma
SK-MEL-5 melanoma = system: SK-MEL-5 melanoma
SK-OV-3 ovarian = system: SK-OV-3 ovarian
SN12C renal = system: SN12C renal
SNB-19 CNS = system: SNB-19 CNS
SNB-75 CNS = system: SNB-75 CNS
SW-620 colon = system: SW-620 colon
T-47D breast = system: T-47D breast
TK-10 renal = system: TK-10 renal
U251 CNS = system: U251 CNS
UACC-257 melanoma = system: UACC-257 melanoma
UACC-62 melanoma = system: UACC-62 melanoma
UO-31 renal = system: UO-31 renal

S=C(S)NCCNC(=S)S.[Cu+2]
89.3 µM: TGI (NCI-H460 lung)
inactive: GI50 (786-0 renal) 63.2 µM | GI50 (A498 renal) 57.6 µM | GI50 (A549 NSCLC) 56.6 µM | GI50 (ACHN renal) > 100 µM | GI50 (CAKI-1 renal) > 100 µM | GI50 (CCRF-CEM leukemia) > 100 µM | GI50 (COLO 205 colon) > 100 µM | GI50 (DU-145 prostate) > 100 µM | GI50 (EKVX NSCLC) 70.1 µM | GI50 (HCC-2998 colon) 59.3 µM | GI50 (HCT-116 colon) > 100 µM | GI50 (HCT-15 colon) 51.6 µM | GI50 (HL-60(TB) leukemia) > 100 µM | GI50 (HOP-62 NSCLC) 68.6 µM | GI50 (HOP-92 NSCLC) > 100 µM | GI50 (HS 578T breast) > 100 µM | GI50 (HT29 colon) > 100 µM | GI50 (IGROV1 ovarian) 93.2 µM | GI50 (K-562 leukemia) > 100 µM | GI50 (KM12 colon) > 100 µM | GI50 (LOX IMVI melanoma) 31.8 µM | GI50 (M14 melanoma) > 100 µM | GI50 (MALME-3M melanoma) > 100 µM | GI50 (MCF7 breast) 27.4 µM | GI50 (MDA-MB-231 breast) > 100 µM | GI50 (MDA-MB-435) 29.7 µM | GI50 (MDA-N) 25.7 µM | GI50 (MOLT-4 leukemia) > 100 µM | GI50 (NCI-H226 lung) > 100 µM | GI50 (NCI-H23 lung) > 100 µM | GI50 (NCI-H460 lung) 29.7 µM | GI50 (NCI/ADR-RES ovarian) > 100 µM | GI50 (OVCAR-3 ovarian) > 100 µM | GI50 (OVCAR-4 ovarian) 36.1 µM | GI50 (OVCAR-5 ovarian) 52.4 µM | GI50 (OVCAR-8 ovarian) > 100 µM | GI50 (PC-3 prostate) > 100 µM | GI50 (RPMI-8226 leukemia) > 100 µM | GI50 (RXF 393 renal) 36.1 µM | GI50 (SF-268 CNS) > 100 µM | GI50 (SF-295 CNS) > 100 µM | GI50 (SF-539 CNS) > 100 µM | GI50 (SK-MEL-28 melanoma) > 100 µM | GI50 (SK-MEL-5 melanoma) 25.8 µM | GI50 (SK-OV-3 ovarian) 8.24 µM | GI50 (SN12C renal) > 100 µM | GI50 (SNB-19 CNS) > 100 µM | GI50 (SNB-75 CNS) > 100 µM | GI50 (SW-620 colon) 88.6 µM | GI50 (T-47D breast) > 100 µM | GI50 (TK-10 renal) > 100 µM | GI50 (U251 CNS) > 100 µM | GI50 (UACC-257 melanoma) > 100 µM | GI50 (UACC-62 melanoma) 33.9 µM | GI50 (UO-31 renal) > 100 µM
69.5 µM: TGI (MDA-N)
> 100 µM: TGI (786-0 renal) | TGI (A498 renal) | TGI (A549 NSCLC) | TGI (ACHN renal) | TGI (CAKI-1 renal) | TGI (CCRF-CEM leukemia) | TGI (COLO 205 colon) | TGI (DU-145 prostate) | TGI (EKVX NSCLC) | TGI (HCC-2998 colon) | TGI (HCT-116 colon) | TGI (HCT-15 colon) | TGI (HL-60(TB) leukemia) | TGI (HOP-62 NSCLC) | TGI (HOP-92 NSCLC) | TGI (HS 578T breast) | TGI (HT29 colon) | TGI (IGROV1 ovarian) | TGI (K-562 leukemia) | TGI (KM12 colon) | TGI (LOX IMVI melanoma) | TGI (M14 melanoma) | TGI (MALME-3M melanoma) | TGI (MDA-MB-231 breast) | TGI (MOLT-4 leukemia) | TGI (NCI-H226 lung) | TGI (NCI-H23 lung) | TGI (NCI/ADR-RES ovarian) | TGI (OVCAR-3 ovarian) | TGI (OVCAR-4 ovarian) | TGI (OVCAR-5 ovarian) | TGI (OVCAR-8 ovarian) | TGI (PC-3 prostate) | TGI (RPMI-8226 leukemia) | TGI (RXF 393 renal) | TGI (SF-268 CNS) | TGI (SF-295 CNS) | TGI (SF-539 CNS) | TGI (SK-MEL-28 melanoma) | TGI (SN12C renal) | TGI (SNB-19 CNS) | TGI (SNB-75 CNS) | TGI (SW-620 colon) | TGI (T-47D breast) | TGI (TK-10 renal) | TGI (U251 CNS) | TGI (UACC-257 melanoma) | TGI (UACC-62 melanoma) | TGI (UO-31 renal)
78.2 µM: TGI (MCF7 breast)
58.5 µM: TGI (SK-MEL-5 melanoma)
23.1 µM: TGI (SK-OV-3 ovarian)
79.2 µM: TGI (MDA-MB-435)
